Values quoted from earlier work as cited in paper PMC10401651, “Characterization of Uranyl (UO2^2+) Ion Binding to Amyloid Beta (Aβ) Peptides: Effects on Aβ Structure and Aggregation” (ACS Chemical Neuroscience, 2023).

Biological target: T1, Aβ42 oligomers (Homo sapiens, UniProt P05067)
T1 construct: Synthetic lyophilized wt Aβ (1–42) peptides, abbreviated as Aβ42; purchased JPT Peptide Technologies (Germany); host or cells: synthetic peptide
Set-up: method as in PMID 36849796
Settings: 0.05% SDS; cited from earlier work

T1 sequence (P05067 672-713 limits assumed): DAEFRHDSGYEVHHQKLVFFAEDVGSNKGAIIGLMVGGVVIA

SMILES: [Ni+2] [Ni(II) ions]
- concentration required for full disruption of homogeneous AβO0.05%SDS oligomers: 500 mM
